Results taken from the supplement of paper PMC10307832.

Assays:
Assay in all cases: relative viability (nuclei count vs DMSO), 5 days (fraction); higher = more cells survive
PAC-1 + Trametinib = compound: C=CCc1cccc(/C=N/NC(=O)CN2CCN(Cc3ccccc3)CC2)c1O [PAC-1] + CC(=O)Nc1cccc(-n2c(=O)n(C3CC3)c(=O)c3c(Nc4ccc(I)cc4F)n(C)c(=O)c(C)c32)c1 [Trametinib] (partner 0.02 µM)
Summary of the method: (§1)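 A single step with final 0.05% Triton X-100, 1% formaldehyde and 1 ug/ml Hoechst fixed the cells and stained nuclei 5 days after treatment. Lung cancer cell lines in 1536-well plates had been treated by pin tool the day after seeding with one drug alone or a fixed anchor-drug dose plus five library-drug doses (not always all listed) in √10 steps, and nuclei were counted on 4× images. Relative viability is the ratio of nuclei in treated wells to nuclei in vehicle wells, taken as the median of duplicate plates.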

BMX-IN-1 + Foretinib = compound: C=CC(=O)Nc1cc(-n2c(=O)ccc3cnc4ccc(-c5ccc(NS(C)(=O)=O)cc5)cc4c32)ccc1C [BMX-IN-1] + COc1cc2c(Oc3ccc(NC(=O)C4(C(=O)Nc5ccc(F)cc5)CC4)cc3F)ccnc2cc1OCCCN1CCOCC1 [Foretinib] (partner 0.25 µM)
Summary of the method: as §1

PAC-1 + Olaparib = compound: C=CCc1cccc(/C=N/NC(=O)CN2CCN(Cc3ccccc3)CC2)c1O [PAC-1] + O=C(c1cc(Cc2n[nH]c(=O)c3ccccc23)ccc1F)N1CCN(C(=O)C2CC2)CC1 [Olaparib] (partner 8 µM)
Summary of the method: as §1

Ibrutinib + Palbociclib = compound: C=CC(=O)N1CCC[C@@H](n2nc(-c3ccc(Oc4ccccc4)cc3)c3c(N)ncnc32)C1 [Ibrutinib] + CC(=O)c1c(C)c2cnc(Nc3ccc(N4CCNCC4)cn3)nc2n(C2CCCC2)c1=O [Palbociclib] (partner 0.5 µM)
Summary of the method: as §1

Cell Line	relative viability (PAC-1 + Trametinib; first compound 0.02 µM)	relative viability (PAC-1 + Trametinib; first compound 0.06325 µM)	relative viability (PAC-1 + Trametinib; first compound 0.2 µM)	relative viability (PAC-1 + Trametinib; first compound 2 µM)	relative viability (BMX-IN-1 + Foretinib; first compound 0.02 µM)	relative viability (BMX-IN-1 + Foretinib; first compound 0.2 µM)	relative viability (BMX-IN-1 + Foretinib; first compound 0.6325 µM)	relative viability (BMX-IN-1 + Foretinib; first compound 2 µM)	relative viability (PAC-1 + Olaparib; first compound 0.02 µM)	relative viability (PAC-1 + Olaparib; first compound 0.06325 µM)	relative viability (PAC-1 + Olaparib; first compound 0.2 µM)	relative viability (PAC-1 + Olaparib; first compound 2 µM)	relative viability (Ibrutinib + Palbociclib; first compound 0.005 µM)	relative viability (Ibrutinib + Palbociclib; first compound 0.01581 µM)	relative viability (Ibrutinib + Palbociclib; first compound 0.05 µM)	relative viability (Ibrutinib + Palbociclib; first compound 0.1581 µM)	relative viability (Ibrutinib + Palbociclib; first compound 0.5 µM)
NCI-H1651	0.85	0.862	0.765	0.855	1	0.907	0.909	0.773	0.149	0.2	0.181	0.193	0.529	0.5	0.533	0.489	0.51
NCI-H1666	0.909	0.868	0.862	0.914	0.959	1.04	1.03	0.935	0.688	0.745	0.75	0.729	0.647	0.692	0.639	0.631	0.659
NCI-H1734	0.692	0.774	0.644	0.644	1.01	0.954	1.08	0.796	0.655	0.611	0.271	0.632	0.374	0.332	0.384	0.346	0.357
NCI-H1755	0.815	0.767	0.783	0.733	0.833	0.891	1.05	0.905	0.879	0.837	0.849	0.826	0.473	0.442	0.467	0.455	0.495
NCI-H1793	0.363	0.423	0.39	0.405	0.856	0.856	0.656	0.699	0.682	0.855	0.7	0.628	0.251	0.247	0.238	0.31	0.243
NCI-H1915	0.304	0.303	0.303	0.33	1.16	1.25	1.12	1.07	0.234	0.262	0.22	0.274	0.519	0.517	0.554	0.506	0.532
NCI-H1944	0.414	0.393	0.433	0.444	0.972	0.83	0.976	0.905	0.389	0.434	0.425	0.402	0.297	0.285	0.273	0.301	0.255
NCI-H1975	0.391	0.424	0.325	0.349	0.938	1.08	1.01	0.93	0.779	0.809	0.811	0.703	0.546	0.446	0.502	0.457	0.17
NCI-H1993	0.446	0.534	0.623	0.583	0.882	0.816	0.731	0.755	1.12	1.16	0.684	0.961	0.388	0.56	1.64	0.714	0.466
NCI-H2009	0.295	0.35	0.255	0.234	1.38	1.26	1.24	1.28	0.681	0.655	0.677	0.652	0.136	0.214	0.183	0.169	0.288
NCI-H2023	0.723	0.542	0.47	0.402	0.928	1.12	1.06	0.926	0.468	0.425	0.449	0.257	0.33	0.292	0.346	0.41	0.311
NCI-H2085	0.452	0.521	0.458	0.629	0.978	0.847	0.763	0.804	0.728	0.74	0.74	0.831	0.467	0.469	0.425	0.47	0.44
NCI-H2087	0.184	0.227	0.236	0.244	1.25	1.12	1.37	1.26	0.53	0.504	0.579	0.451	0.243	0.217	0.161		
NCI-H2126	0.548	0.535	0.563	0.55	1.15	1.21	1.32	1.25	0.896	0.871	0.941	0.886	0.348	0.322	0.34	0.342	0.345
NCI-H2170	0.888	0.958	0.932	0.859	1.23	0.975	0.993	0.987	0.557	0.632	0.562	0.542	0.329	0.296	0.259	0.385	0.139
NCI-H2228	0.394	0.889	0.433	0.648	1.19	1.08	1.03	0.916	0.619	0.607	0.619	0.646	0.912	0.687	0.697	0.947	0.779
